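Assay format: 96-well plates, 48-hour exposure. GI50: concentration for 50% inhibition of growth.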 Calls of active or inactive are those of the source. Cut-off read from the data, not from the text of the source: active = GI50 up to about 1.1 µM and inactive = higher.
Key:
Experiment in all cases: inhibition of tumour cell growth, NCI panel, 48 h
M14 = system: M14
OVCAR-3 = system: OVCAR-3
HCT-15 = system: HCT-15
TK-10 = system: TK-10
SW-620 = system: SW-620
NCI-H460 = system: NCI-H460
COLO 205 = system: COLO 205
HCT-116 = system: HCT-116
OVCAR-5 = system: OVCAR-5
SK-MEL-28 = system: SK-MEL-28
SK-MEL-2 = system: SK-MEL-2
OVCAR-4 = system: OVCAR-4
RPMI-8226 = system: RPMI-8226
SF-295 = system: SF-295
SK-MEL-5 = system: SK-MEL-5
HCC 2998 = system: HCC 2998
HOP-92 = system: HOP-92
HT-29 = system: HT-29
UACC-62 = system: UACC-62
LOX IMVI = system: LOX IMVI

SMILES	GI50 (M14)	GI50 (OVCAR-3)	GI50 (HCT-15)	GI50 (TK-10)	GI50 (SW-620)	GI50 (NCI-H460)	GI50 (COLO 205)	GI50 (HCT-116)	GI50 (OVCAR-5)	GI50 (SK-MEL-28)	GI50 (SK-MEL-2)	GI50 (OVCAR-4)	GI50 (RPMI-8226)	GI50 (SF-295)	GI50 (SK-MEL-5)	GI50 (HCC 2998)	GI50 (HOP-92)	GI50 (HT-29)	GI50 (UACC-62)	GI50 (LOX IMVI)
CCOC(=O)C(=O)Nc1cccc(C)c1C	> 100 µM (inactive)	> 100 µM (inactive)	> 100 µM	> 100 µM (inactive)	> 100 µM (inactive)	> 100 µM (inactive)	> 100 µM (inactive)	> 100 µM (inactive)	> 100 µM (inactive)	> 100 µM (inactive)	> 100 µM (inactive)	> 100 µM (inactive)	> 100 µM (inactive)	> 100 µM (inactive)	> 100 µM (inactive)	> 100 µM (inactive)	> 100 µM (inactive)	> 100 µM (inactive)	> 100 µM (inactive)	–
CN(C)/N=N/c1ccc([N+](=O)[O-])cc1C(N)=O	–	> 100 µM (inactive)	> 100 µM	–	> 100 µM (inactive)	> 100 µM (inactive)	> 100 µM (inactive)	> 100 µM (inactive)	> 100 µM (inactive)	> 100 µM (inactive)	> 100 µM (inactive)	> 100 µM (inactive)	> 100 µM (inactive)	> 100 µM (inactive)	> 100 µM (inactive)	> 100 µM (inactive)	> 100 µM (inactive)	> 100 µM (inactive)	> 100 µM (inactive)	> 100 µM (inactive)
CCCCNC1=C2C(=O)NN=C2CO1	> 100 µM (inactive)	–	> 100 µM	> 100 µM (inactive)	> 100 µM (inactive)	> 100 µM (inactive)	> 100 µM (inactive)	> 100 µM (inactive)	> 100 µM (inactive)	> 100 µM (inactive)	> 100 µM (inactive)	> 100 µM (inactive)	> 100 µM (inactive)	> 100 µM (inactive)	> 100 µM (inactive)	> 100 µM (inactive)	> 100 µM (inactive)	> 100 µM (inactive)	> 100 µM (inactive)	> 100 µM (inactive)
CCCn1cc2c3c(cccc31)C1C=C(C)CN(C)C1C2 (configuration not stated)	–	20.4 µM (inactive)	17.4 µM	–	23.4 µM (inactive)	12 µM (inactive)	9.98 µM (inactive)	10.4 µM (inactive)	25.2 µM (inactive)	18.1 µM (inactive)	29.1 µM (inactive)	10.1 µM (inactive)	6.61 µM (inactive)	23.8 µM (inactive)	11.3 µM (inactive)	15.2 µM (inactive)	11.7 µM (inactive)	12.9 µM (inactive)	23.4 µM (inactive)	13.6 µM (inactive)
O=C(NNC(=O)c1nsc2ccccc12)c1ccc(Cl)cc1	19.5 µM (inactive)	17.2 µM (inactive)	18.2 µM	26.3 µM (inactive)	35.4 µM (inactive)	> 100 µM (inactive)	23.7 µM (inactive)	17.5 µM (inactive)	20.4 µM (inactive)	16.9 µM (inactive)	22.3 µM (inactive)	> 10 µM (inactive)	20.4 µM (inactive)	–	23.8 µM (inactive)	16.9 µM (inactive)	17.1 µM (inactive)	20.3 µM (inactive)	> 10 µM (inactive)	18.1 µM (inactive)
CC(C)(C)C(=O)OCC1OC(N=[N+]=[N-])C(OC(=O)C(C)(C)C)C(OC(=O)C(C)(C)C)C1OC(=O)C(C)(C)C (configuration not stated)	> 100 µM (inactive)	> 100 µM (inactive)	> 100 µM	> 100 µM (inactive)	> 100 µM (inactive)	> 100 µM (inactive)	> 100 µM (inactive)	> 100 µM (inactive)	> 100 µM (inactive)	> 100 µM (inactive)	> 100 µM (inactive)	> 100 µM (inactive)	> 100 µM (inactive)	> 100 µM (inactive)	> 100 µM (inactive)	> 100 µM (inactive)	> 100 µM (inactive)	> 100 µM (inactive)	> 100 µM (inactive)	–

— ChEMBL document CHEMBL1201862, “PubChem BioAssay data set” (2004)
